# Assays:
# [1] = tested on: viable neurons in the CA1 area of the hippocampus; test: Quantification of viable neurons in area CA1 (cresyl violet); format: in vivo; details: 0.3 mg/Kg i.p., oligomer-intoxicated mice (not shown)
# Protocol: The neuroprotective effect of the compounds, i.e. the ability thereof to protect cells from Aβ25-35 oligomer neurotoxicity and neurodegeneration, is also tested (FIG. 10). The test compounds are thus administered on the same day as the injection of the Aβ25-35 oligomers and are continued to be administered on a daily basis up to day 7 after the injection of the oligomers, at which time the mice are subjected to the YMT, PAT, MWT or ORT. The brain's anatomy is analysed and neuronal cells are counted by immunohistochemistry on mice sacrificed at D13. The biochemical analyses for the quantification of markers of oxidative stress and apoptosis were carried out at D16 on a group of mice that had been subjected to the WMT (FIG. 10). […]
# In Alzheimer's patients, a decrease in neurons has been reported in the CA1 region (and to a lesser extent in the CA3 region). […] In order to quantify viable neurons in the CA1 region of the mouse hippocampus, the corresponding sections were stained with cresyl violet (0.12%, Sigma-Aldrich), dehydrated with ethanol, treated with xylene and mounted with a mounting medium (Mountex medium, BDH Laboratory Supplies) and dried at 24° C. at ambient temperature. The images were recorded and analysed (Nanozoomer virtual microscopy system, Hamamatsu, Massy, France). […]
# NMDA receptors = details: described in WO 2014/191424; cited from earlier work
structure (smiles),measurement,setting,value
"NC12CC3CC(C1)CC(CCF)(C3)C2 [FENM, 3-(2-fluoroethyl)adamantan-1-amine]",number of viable neurons in the CA1 area,[1],maintained the number of viable neurons in the CA1 area of the hippocampus
same,thickness of the CA1 area,[1],counteracted the increase in thickness of this area
same,affinity for NMDA receptors,NMDA receptors,of an order of magnitude that is similar to that of memantine

# — patent US12611387B2, “Compound and composition for inducing neuroprotection” (REST THERAPEUTICS, priority 2020, dated 2026)
